Columns and labels:
Pseudomonas aeruginosa [1] = test: Growth test on Pseudomonas aeruginosa; type: cell-based; conditions: FIG. 2, FIG. 4
Pseudomonas aeruginosa [2] = test: Prevention of Pseudomonas aeruginosa attachment by synthetic peptides; type: cell-based; conditions: for anti adherence activity on P. aeruginosa: FIG. 3
Description: The synthetic peptide grZ28C [[…] (SEQ ID NO: 1)] gave approximately 50% prevention of Pseudomonas aeruginosa attachment at three concentrations: 50, 5 and 0.5 μg/ml (FIG. 1). The activity was similar to that of the AbacZ17C, peptide based on the anemone cytotoxin active region. Abac10C, which was used as a negative control peptide, was synthesized based on the N-terminal sequence of Abac17C, without the active residue [[…] (SEQ ID NO: 27)].
For peptide grZ35 cyc, the peptide sequence […] (SEQ ID NO: 6) which represents the extracellular region, residue 259-292, was synthesized with two Cysteines in the C and N termini and S—S bridged. For peptide grZ28C, the peptide sequence […] (SEQ ID NO: 3) which represents the extracellular region, residue 259-284, was synthesized with two Cysteines in C and N termini.

[3] = Dissolution of peptide in Phosphate Buffer Saline (visual inspection); type: physicochemical
[4] = tested on: P. aeruginosa strain 6294; test: Bacterial adhesion assay on contact lenses, P. aeruginosa strain 6294; type: cell-based, Pseudomonas aeruginosa; conditions: for log inhibition of P. aeruginosa 6294 adhesion: 18 hours; for percentage of inhibition of P. aeruginosa 6294 adhesion: TLF
Description: (§1) The peptide APi1775 (gr14Z-BBC2) according to SEQ ID NO: 28 was immobilized onto Etafilcon A™ (Johnson & Johnson Vision Care Inc., Jacksonville, Fla., USA; Base curve: 8.7 mm, Diameter: 14.0 mm) contact lenses. […] The coating (covalently bonding the peptide to the surface of the contact lenses) procedure was performed by activating the surface of the contact lenses with carboxyl-reactive crosslinker reactive groups EDC (1-ethyl-3-(-3-dimethylaminopropyl) carbodiimide hydrochloride, MW 191.70) followed by incubation with APi1775 (gr14Z-BBC2) at 0.1 μM 1.0 μM and 10 μM peptide concentration. Peptide grZ14s-nyCyc-3PEG-Pal soaked (1 μM) contact lenses were used as positive control, this peptide is used for non-covalent coating of contact lenses.
(§2) Antimicrobial activity was determined against P. aeruginosa strain 6294 (isolated from a case of microbial keratitis), P. aeruginosa strong biofilm produces strain 142 (isolated from a case of microbial keratitis) and S. aureus strain 31 (isolated from a case of contact lens-induced peripheral ulcer) following established methods. Briefly, P. aeruginosa and S. aureus were grown overnight in tryptone soya broth (TSB; Oxoid, Basingstoke, UK) and re-suspended in 1/10 TSB and PBS respectively to an OD660 nm of 0.1 (1.0×10^8 colony-forming unit (CFU) per ml). The bacterial cell suspensions were then diluted to […] for adhesion assays. Non-coated control, process control, APi1775 peptide coated and grZ14s-nvCyc-3PEG-Pal soaked lenses were washed in PBS and transferred to 1 ml of bacterial suspension in 24 well tissue culture plates (CELESTAR®, Greiner bio-one, Frickenhausen, Germany), and incubated at 37° C. for 18 hours with shaking (120 rpm). For P. aeruginosa strain 6294, the assay was performed with PBS and tear Like Fluid (TFL), for P. aeruginosa strain 142 the assay was performed with PBS and for S. aureus the assay was performed using 1/10 TSB. Lenses were washed three times following incubation with PBS to remove loosely adhered bacteria, then stirred in a vortex mixer rapidly in 2 ml of fresh PBS containing a small magnetic stirring bar. The resulting slurry was serially diluted and 20 μl was added onto nutrient agar (TSA; Oxoid, Basingstoke, UK) for recovery of cells. After incubation at 37° C. for 18 hours, viable microorganisms were enumerated as CFU for each lens. Measurements were performed in triplicates for at least three occasions.
(§3) Data were analyzed using Microsoft Office Excel and Statistical Package for the Social Sciences software version 23.0 (SPSS, Inc., Chicago, Ill.). The bacterial adhesion data were log10 (x+1) transformed prior to analysis where x is the adherent bacteria CFU/lens. Bacterial adhesion, contact lens surface elemental composition, and contact lens parameters were analysed using an independent 2-sample t-test, and expressed with descriptive statistics. Statistical significance was set at 5%.

Murine L929 cells = test: In vitro cytotoxicity of immobilised contact lenses (ISO 10993-5, Trypan Blue); type: cell-based; conditions: peptide coated contact lenses (0.1, 1.0, 10.0 μM) on murine L929 monolayer, 24 h
Description: Testing in vitro cytotoxicity of APi1775 (gr14Z-BBC2) immobilised contact lenses was performed according to ISO standard 10993-5 standardized procedures. Murine L929 cells were grown to >80% confluency in 24 well tissue culture plates (CELESTAR®, Greiner bio-one, Frickenhausen, Germany) with DMEM cell culture media. The medium was aspirated and replaced with adequate fresh growth medium every 2-3 days. All the test and control contact lenses were washed with sterile PBS prior to the start of the study and then directly placed on the cell monolayer for examination of in vitro cytotoxicity. During this any cytotoxicity of the lenses will disrupt the normal functions of cells beneath and perhaps adjacent to the samples. The samples were incubated overnight at 37° C. with 5% CO2. After 24 hours, cells were stained with vital stain (Trypan Blue; Sigma-Aldrich, St Louis, Mo., USA) and cytotoxicity was assessed using bright field and phase-contrast microscopy. Cytotoxic responses are graded according to a standard key, which quantifies the viability and zonal extent. The samples were used in triplicates.

[5] = tested on: P. aeruginosa strong biofilm producer strain 142; test: Bacterial adhesion assay on contact lenses, P. aeruginosa strong biofilm producer strain 142; type: cell-based, Pseudomonas aeruginosa; conditions: PBS (No-TLF)
Description: as §1, §2, §3

[6] = lens coated with 0.1 μM peptide, PBS
[7] = lens coated with 1.0 μM peptide, PBS
[8] = lens coated with 10.0 μM peptide, PBS
[9] = lens treated with 0.1 μM peptide
[10] = lens treated with 1.0 μM peptide
[11] = lens treated with 10.0 μM peptide

For “CSFSQNKSVHSFDYDWYNVSDQADLKNC (SEQ ID NO: 1) [grZ28C]”, the “effect on P. aeruginosa growth” value (Pseudomonas aeruginosa [1]) was “not inhibited”, the “anti adherence activity on P. aeruginosa” value (Pseudomonas aeruginosa [2]) was “anti adherence activity” and the “prevention of Pseudomonas aeruginosa attachment” value (Pseudomonas aeruginosa [2]; at three concentrations: 50, 5 and 0.5 μg/ml (FIG. 1)) was “approximately 50%”.

For “SFSQNKSVHSFDYDWYNVSDQADLKNQLGDAGYV (SEQ ID NO: 6) [grZ35 cyc]”, the “effect on P. aeruginosa growth” value (Pseudomonas aeruginosa [1]) was “not inhibited” and the “anti adherence activity on P. aeruginosa” value (Pseudomonas aeruginosa [2]) was “anti adherence activity”.

For “SVHSFDYDWYNV (SEQ ID NO: 28) (immobilized on Etafilcon A contact lens) [APi1775]”, the “dissolution in Phosphate Buffer Saline” value ([3]; 0.1 μM, 1.0 μM concentration) was “completely dissolved”, the “dissolution in Phosphate Buffer Saline” value ([3]; 10.0 μM, rotary shaker at 37° C. overnight, visual inspection) was “completely dissolved” and the “percentage inhibition of P. aeruginosa 6294 adhesion” value [4, 6] was 77.1%. For the same sequence, the “log inhibition of P. aeruginosa 6294 adhesion” value [4, 6] was 0.79 log, the “percentage inhibition of P. aeruginosa 6294 adhesion” value [4, 7] was 77.5% and the “log inhibition of P. aeruginosa 6294 adhesion” value [4, 7] was 0.83 log. For the same sequence, the “percentage inhibition of P. aeruginosa 6294 adhesion” value [4, 8] was 47.7%, the “log inhibition of P. aeruginosa 6294 adhesion” value [4, 8] was 0.29 log and the “percentage of inhibition of P. aeruginosa 6294 adhesion” value [4, 9] was 31.76%. The “log inhibition of P. aeruginosa 6294 adhesion” value ([4]; lens treated with 0.1 μM peptide, Tear Like Fluid (TLF)) was 0.17 log, the “percentage of inhibition of P. aeruginosa 6294 adhesion” value [4, 10] was 80.40% and the “log inhibition of P. aeruginosa 6294 adhesion” value ([4]; lens treated with 1.0 μM peptide, Tear Like Fluid (TLF)) was 0.71 log. The “percentage of inhibition of P. aeruginosa 6294 adhesion” value [4, 11] was 96.64%, the “log inhibition of P. aeruginosa 6294 adhesion” value ([4]; lens treated with 10.0 μM peptide, Tear Like Fluid (TLF)) was 1.47 log and the “cytotoxicity to mammalian cells in vitro” value (Murine L929 cells) was “not cytotoxic”. For the same sequence, the “inhibition of bacterial adhesion, strain 142” value [5, 9] was 44.73%, the “log inhibition of P. aeruginosa strain 142 adhesion” value [5, 9] was 0.26 log and the “inhibition of bacterial adhesion, strain 142” value [5, 10] was 43.62%. The “log inhibition of P. aeruginosa strain 142 adhesion” value [5, 10] was 0.25 log, the “inhibition of bacterial adhesion, strain 142” value [5, 11] was 77.80% and the “log inhibition of P. aeruginosa strain 142 adhesion” value [5, 11] was 0.65 log.

Reference: US11174299B2, “Peptides and compositions for prevention of cell adhesion and methods of using same” (D[…]., priority 2008, dated 2021)
